Measurements taken from PMC5442318, “Hundreds of dual-stage antimalarial molecules discovered by a functional gametocyte screen” (Nature Communications, 2017).
Where two headings read alike, the source gives them in different places.

Legend:
[1] = system: P. falciparum asexual blood stages; conditions: read-out: Pf Asexual blood stages XC50, cited from earlier work
[2] = system: P. falciparum stage V female gametocytes; test: P. falciparum female gametocyte activation assay (Pf FGAA), 24 h or 48 h preincubation, Pfs25 expression readout; format: cell-based, Plasmodium falciparum NF54; conditions: mean, read-out: Gametocytes mean Pf FGAA IC50
Experimental: P. falciparum NF54 (originally isolated from an imported malaria case in the Netherlands in the 1980s; BEI Resources, cat. no. MRA-1000) asexual-stage culture was performed as described by Trager and Jensen[37]. Cultures synchronized at the ring stage were used to start gametocyte cultures (day 0) at 1% parasitaemia and 4% haematocrit in 200 ml final volume using culture bottles (Nalgene 3110-42, Thermo Scientific). Complete culture medium (RPMI 1640 supplemented with 25 mM HEPES, 50 μg ml^−1 hypoxanthine, 2 g l^−1 NaHCO3 and 10% pooled human male type A+ serum) was totally replaced daily for 14 days without fresh erythrocyte addition. Human serum was obtained from Interstate Blood Bank, A^+ serotype; no aspirin 2 h before drawing and no antimalarials 2 weeks before drawing. To ensure a stable temperature at 37 °C, which is crucial for gametocyte production and maturation, pre-warmed medium and a slide warmer (XH-2001, Premiere) were used. Under these conditions, parasitaemia reaches a peak of asexual stages on days 4–5, and the first gametocytes are differentiated in culture on day 6. Sexual-stage development was monitored microscopically by Giemsa-stained thin blood smears at day 7 (mainly asexual stages and stages I to III gametocytes) and day 14 (stages IV and V gametocytes).
Cultures showing mainly stage V gametocytes were purified by differential sedimentation as previously reported. The gametocyte concentration was adjusted to plate 8,000 gametocytes per well (100 μl per well) in 384-well poly-D-lysine coated plates (781946, Greiner Bio-One) containing the compounds to test. […] Female gametocyte activation was then triggered by temperature drop and addition of xanthurenic acid (D120804, Sigma) as previously described. To detect female gametes, monoclonal anti-Pfs25 antibody[38] 4B7 (BEI Resources (formerly MR4), cat. no. MRA-315) conjugated to the Cy3 fluorochrome (GE Healthcare) was added to ookinete medium (RPMI 1640 supplemented with 25 mM HEPES, 50 μg ml^−1 hypoxanthine, 2 g l^−1 NaHCO3, 100 μM xanthurenic acid and 20% human serum) at a final concentration of 0.5 μg ml^−1. Activated cultures were then kept at 26 °C for 24 h protected from light, and image acquisition was performed in the Opera High-Content Screening System (PerkinElmer). Using × 10 air objective, five images per well were taken using 532 nm excitation. Images were analysed with a Columbus image data storage and analysis system (PerkinElmer) based on a script specifically designed for this assay that considers size, roundness and intensity of fluorescence of the female activated gametocytes.
Compounds were dissolved in 100% DMSO and dispensed in the 384-well plates using an Echo-CRS liquid handler. Compounds were tested in 2–3 independent experiments. […] Based on that, Z′ factor was calculated for each plate and only those ones with values higher than 0.4 were considered acceptable for data analysis.
Assay performance statistics, such as signal to background ratio, Z′ and robust 3 s.d. activity cut-off were calculated using templates in ActivityBase XE (IDBS, Guilford, Surrey, UK). Hit population analysis and visualization were conducted using Spotfire DecisionSite (Spotfire, Inc., Somerville, MA, USA). The pIC50 (−log IC50) values were obtained using the ActivityBase XE nonlinear regression function in the full curve analysis bundle.

[3] = system: P. falciparum stages IV–V gametocytes; test: Gametocytocidal ATP-depletion assay (gametocyte ATP bioluminescence); format: cell-based, Plasmodium falciparum
Experimental: In parallel, the set of confirmed hits from the Pf FGAA screen was cross-compared in the gametocyte ATP-depletion assay, at 2 μM single concentration (Supplementary Data 1). This assay monitors ATP levels as surrogate of gametocyte viability.
‘Viability' of mature gametocytes was determined using the gametocyte ATP bioluminiscence assay. Briefly, stages IV–V gametocyte cultures were double-purified by differential sedimentation followed by magnetic isolation. Then, parasites (50 μl per well containing 12,500 gametocytes) were added to compound pre-dispensed 384-well plates (781091, Greiner Bio-One) and incubated at 37 °C for 48 h (3% O2, 5% CO2 and 92% N2). BacTiter-Glo kit (G8231, Promega) was used to determine the ATP levels of ‘live' parasites according to the manufacturer's instructions. After reagent addition (50 μl per well), luminescence of the plates was measured using a microplate reader (HTS counter Victor, Wallac).

[4] = system: HepG2 cells; test: HepG2 cytotoxicity assay; format: cell-based
Experimental: After incubation, plates and CellTiter-Glo Reagent (G7571, Promega) were equilibrated at room temperature for 30 min before proceeding to develop the luminescent signal. Using a Multidrop combi dispenser, 25 μl per well of the signal developer were added to the plates and after 10 min at room temperature for stabilization, plates were read on the ViewLux system (Perkin Elmer).

[5] = TCAMS asexual blood stage data, ref 1 (Gamo, F. J. et al., Nature 465, 305-310, 2010)
[6] = P. falciparum female gametocytes
[7] = TCAMS data, ref 1 (Gamo et al., 2010)

| Structure (SMILES) | IC50 [1, 5] [nM] | IC50 [2, 6] [nM] | Gametocytes mean ATP inhibition at 2µM [3] [%] | HepG2 cells mean TOX50 ([4]; HepG2 cells) [µM] | Gametocytes mean ATP inhibition at 2µM (%) [3] [%] | further results |
| --- | --- | --- | --- | --- | --- | --- |
| CNC(=S)NN=C(C)c1ccccn1 [TCMDC-123475] | 270 | 14 | 81.04 |  |  |  |
| COc1ccc(C[C@H](N)C(=O)N[C@H]2[C@@H](O)[C@H](n3cnc4c(N(C)C)ncnc43)O[C@@H]2CO)cc1 [TCMDC-123493] | 170 |  |  | 1.80 |  | Selectivity ratio ([4]; HepG2 TOX50 versus Pf FGAA IC50): 6.24; IC50 ([2]; Plasmodium falciparum, P. falciparum female gametocytes): 290 nM; inhibition at 2 µM ([3]; Plasmodium falciparum, mean): 63.8% |
| Cc1ccc(-c2nc3cc(NC(=O)c4ccc([N+](=O)[O-])o4)ccc3o2)cc1Cl [TCMDC-123657] | 160 | 1350 | 8.99 | 1.72 |  |  |
| CCN(CC)CCCn1c(N)c(-c2nc3ccccc3[nH]2)c2nc(C#N)c(C#N)nc21 [TCMDC-123680] | 270 | 740 | 86.44 | 4.27 |  |  |
| Cc1ccnc(NC(c2ccc(Cl)c([N+](=O)[O-])c2)c2ccc3cccnc3c2O)c1 (centres unmarked) [TCMDC-123691] | 930 | 1480 | 95.66 | 23.45 |  |  |
| NC(=Nc1nc(-c2ccccn2)cc2ccccc12)c1cccc(Cl)c1 [TCMDC-123745] | 310 | 50 | 49.04 |  |  |  |
| OC1CCN(c2cc(-c3ccccn3)nc(-c3ccccn3)n2)CC1 [TCMDC-123786] | 1050 | 1540 | 104.88 | 14.14 |  |  |
| COc1ccc(-c2csc3ncnc(Cl)c23)cc1 [TCMDC-123805] | 780 | 1460 | -0.54 | 0.55 |  |  |
| COc1cc2nc(N3CCN(c4nc(N)c5cc(OC)c(OC)cc5n4)CC3)nc(N)c2cc1OC [TCMDC-123865] | 150 | 580 | 90.91 | 52.49 |  |  |
| CCCC(=O)NC(c1ccc(C(C)C)cc1)c1ccc2cccnc2c1O (centres unmarked) [TCMDC-123884] | 930 | 1540 | 63.50 | >100 |  |  |
| OCCN1CCN(c2ccc(Nc3ccnc4cc5ccccc5cc34)cc2)CC1 [TCMDC-123915] | 40 | 3340 | 2.56 | 5.43 |  |  |
| Cc1ccnc(NC(c2cccc(Cl)c2Cl)c2ccc3cccnc3c2O)c1 (centres unmarked) [TCMDC-123997] | 1000 | 1910 | 90.58 | 45.69 |  |  |
| [O-][s+]1c(Cl)c(-c2ccc(Cl)cc2)c2ccc(Cl)cc21 (centres unmarked) [TCMDC-124011] | 990 | 36.6 | 87.64 | 11.35 |  |  |
| Cc1cc(I)ccc1Nc1nc2nonc2nc1Nc1ccc(I)cc1C [TCMDC-124083] | 510 | 1080 | 6.94 | 0.93 |  |  |
| FC(F)(F)c1cccc(Nc2nc3ccccc3nc2Nc2cccc(C(F)(F)F)c2)c1 [TCMDC-124162] | 140 | 2400 | 20.50 | 17.68 |  |  |
| c1ccc(-c2csc(Nc3nc4cc5c(cc4s3)OCO5)n2)nc1 [TCMDC-124550] | 580 | 32.3 | 56.70 |  |  |  |
| Oc1c(C(Nc2nc3ccccc3s2)c2ccccc2)ccc2cccnc12 (centres unmarked) [TCMDC-125565] | 650 | 3030 | 91.61 |  |  |  |
| S=C(NN=Cc1ccccn1)NC1CC2C=CC1C2 (centres unmarked) [TCMDC-125752] | 720 | 15.3 | 74.38 |  |  |  |
| Cc1ccc(Nc2nc(-c3ccccn3)cs2)nc1 [TCMDC-125854] | 750 | 27.3 | 82.15 |  |  |  |
| Cc1c(Cl)cccc1S(=O)(=O)Nc1ccc(CCN2CCC(N)CC2)cc1.Cl [TCMDC-134083] | 1460 |  | -1.32 | 13.86 |  |  |
| Cc1cc(C(=O)Nc2nc(-c3ccccn3)nc3ccsc23)no1 [TCMDC-135243] | 810 | 350 | 53.53 |  |  |  |
| CCn1c(-c2nonc2N)nc2c(-c3cccc(NC(=O)NC45CC6CC(CC(C6)C4)C5)c3)ncc(OCCCN)c21.O=C(O)C(F)(F)F [TCMDC-136246] |  |  |  |  | -16.91 | HepG2 cells mean TOX50 [4]: 6.10 µM; IC50 [2]: 1360 nM |
| Cl.c1ccc2c(Nc3ccc(OCCOCCOc4ccc(Nc5c6ccccc6nc6ccccc56)cc4)cc3)c3ccccc3nc2c1 [TCMDC-137355] |  |  |  |  | -18.54 | IC50 [1, 7]: 280 nM; HepG2 cells mean TOX50 [4]: 5.59 µM |
| CC(=NNC(=S)NC(C)(C)C)c1ccccn1 [TCMDC-137783] |  |  |  |  | 84.85 | IC50 [1, 7]: 160 nM; IC50 [2]: 40 nM |
| CC(=NNC(S)=NCc1ccco1)c1ccccn1 [TCMDC-137906] |  |  |  |  | 77.01 | IC50 [1, 7]: 250 nM; IC50 [2]: 20 nM |
| CCN(CC)CC(O)CNc1c2ccc([N+](=O)[O-])cc2nc2cc(OC)c(OC)cc12.Cl (centres unmarked) [TCMDC-138079] |  |  |  |  | 44.60 | IC50 [1, 7]: 270 nM; IC50 [2]: 3890 nM |
| COc1ccc(CNC(=O)c2cnc3c(O)cccc3c2Nc2cccc(NC(=O)c3ccc(Cl)c(Cl)c3)c2)cc1.O=C(O)C(F)(F)F [TCMDC-139607] |  |  |  |  | 90.02 | IC50 [1, 7]: 600 nM; IC50 [2]: 1600 nM |
| CC(C)(C)c1ccc(C(=O)Nc2cccc(Nc3c(C(=O)NCc4cccc(C(F)(F)F)c4)cnc4c(O)cccc34)c2)cc1.O=C(O)C(F)(F)F [TCMDC-139610] |  |  |  |  | 83.54 | IC50 [1, 7]: 1090 nM; IC50 [2]: 3630 nM |
| COc1ccc(CNC(=O)c2cnc3c(O)cccc3c2Nc2cccc(NC(=O)c3ccc(-c4ccccc4)cc3)c2)cc1.O=C(O)C(F)(F)F [TCMDC-139611] |  |  |  |  | 88.95 | IC50 [1, 7]: 940 nM; IC50 [2]: 1820 nM |
| CC(Cc1ccc(CNC(=O)NCc2ccc(CC(C)NCCc3cccc(Cl)c3)cc2)cc1)NCCc1cccc(Cl)c1 (centres unmarked) [TCMDC-139648] |  |  |  |  | 12.15 | IC50 [1, 7]: 690 nM; HepG2 cells mean TOX50 [4]: 3.94 µM |
